The target in one assay is T1, human mGluR5a receptor (Homo sapiens, UniProt P41594).
T1 construct: host or cells: A18 cell line
Briefly: human mGluR5a receptor binding ([3H]-M-MPEP, A18 cell line expressing hmGluR5a). Particulars: for Ki: A18 cell line expressing hmGluR5a, [3H]-M-MPEP 2 nM; for binding affinity to human mGlu5 receptors: statement in words. As to the method:
(§1) MGluR5 Receptor Binding Tests
(§2) MGluR5 receptor binding was determined according to Gasparini et al. (Bioorg. Med. Chem. Lett. 2000, 12:407-409) with modifications. Rat cerebro-cortical membrane preparation was used to determine the binding characteristics of reference compounds and novel compounds to the rat mGluR5. The A18 cell line expressing hmGluR5a (purchased from Euroscreen) was used to determine binding characteristics of the chemical compounds to the human mGluR5a receptor. [3H]-M-MPEP (2 nM) was used as a radioligand. The nonspecific binding was determined in the presence of 10 μM M-MPEP.

A further assay addresses T2, rat mGluR5 (Rattus norvegicus, UniProt P31424).
T2 construct: Rat cerebro-cortical membrane preparation was used; from tissue; host or cells: rat cerebral cortex membranes
As to the kind of experiment: rat mGluR5 receptor binding ([3H]-M-MPEP, rat cerebro-cortical membranes). The note with it: for Ki: rat cerebro-cortical membranes, [3H]-M-MPEP 2 nM; for binding affinity to rat mGlu5 receptors: statement in words. As to the method: as §1, §2

Another assay deals with male Wistar rats. As to the kind of experiment: Anxiolytic activity in the punished drinking test (Vogel). The format is in vivo, rat. The note with it: for Punished drinking, MED: oral, 60 min before test, MED = dose increasing accepted shocks above 35, male Wistar rats; for anxiolytic activity after oral administration: statement in words. The text has this: Measurement of Anxiolytic Activity in the Punished Drinking Test
The method described by Vogel et al. (Psychopharmacology (Berl.) 1971, 21:1-7) was used with modifications. On the day preceding the test day male Wistar rats (180-220 g) were placed into the test chambers which were equipped with a metal water spout mounted on the wall of the chamber and a metal grid floor for delivering electric shocks. During a 5-min adaptation period the animals had free access to the drinking spout. Following the adaptation session rats were deprived of drinking water for 24 hours prior to the test. On the day of the measurement, the animals were orally treated with the test compounds and 60 minutes later were placed into the test chambers where they had access to the drinking water. In the test session drinking was punished by delivering electric shocks (1 mA, 1 sec) through the drinking spout following every 10 licks during a 270 second punishment period. Number of licks and shocks delivered were recorded and stored in a computer. Anxiolytic activity is reflected by the increased number of accepted shocks. Minimum effective doses (MED, defined as the dose which increased the number of accepted shocks above 35) were determined and used to characterize the anxiolytic potency of the tested compounds.

T1 sequence (P41594 21-1180 isoform P41594-2 limits assumed): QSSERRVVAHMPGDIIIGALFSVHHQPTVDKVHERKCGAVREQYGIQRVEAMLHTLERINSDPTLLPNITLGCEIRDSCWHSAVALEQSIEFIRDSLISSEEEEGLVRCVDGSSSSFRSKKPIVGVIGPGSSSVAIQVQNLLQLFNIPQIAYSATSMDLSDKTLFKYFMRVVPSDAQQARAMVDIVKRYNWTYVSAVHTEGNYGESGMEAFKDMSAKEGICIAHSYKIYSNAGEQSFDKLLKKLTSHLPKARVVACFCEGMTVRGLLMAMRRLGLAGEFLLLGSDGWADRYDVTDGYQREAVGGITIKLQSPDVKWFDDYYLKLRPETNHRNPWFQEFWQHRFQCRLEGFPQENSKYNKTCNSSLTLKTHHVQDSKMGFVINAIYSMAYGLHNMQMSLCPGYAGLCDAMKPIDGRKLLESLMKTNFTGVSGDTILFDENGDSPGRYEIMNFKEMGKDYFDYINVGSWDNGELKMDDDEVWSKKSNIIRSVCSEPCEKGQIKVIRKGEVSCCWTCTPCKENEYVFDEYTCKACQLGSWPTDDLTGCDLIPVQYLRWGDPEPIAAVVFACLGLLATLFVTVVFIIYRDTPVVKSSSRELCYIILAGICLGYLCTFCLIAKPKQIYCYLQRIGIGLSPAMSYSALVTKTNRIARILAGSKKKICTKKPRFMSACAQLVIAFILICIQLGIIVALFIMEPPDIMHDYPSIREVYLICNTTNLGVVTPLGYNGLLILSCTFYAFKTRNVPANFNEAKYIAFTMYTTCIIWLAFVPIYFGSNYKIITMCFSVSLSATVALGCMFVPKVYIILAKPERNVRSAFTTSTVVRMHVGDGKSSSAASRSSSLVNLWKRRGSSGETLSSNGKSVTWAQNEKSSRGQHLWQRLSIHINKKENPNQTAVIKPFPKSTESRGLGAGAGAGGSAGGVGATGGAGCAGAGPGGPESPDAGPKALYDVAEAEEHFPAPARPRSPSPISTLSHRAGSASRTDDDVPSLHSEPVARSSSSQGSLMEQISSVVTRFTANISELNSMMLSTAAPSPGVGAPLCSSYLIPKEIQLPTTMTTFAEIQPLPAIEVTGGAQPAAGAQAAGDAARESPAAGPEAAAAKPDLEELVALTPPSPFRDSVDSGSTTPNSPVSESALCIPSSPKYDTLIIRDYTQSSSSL
T2 sequence (P31424 21-1203): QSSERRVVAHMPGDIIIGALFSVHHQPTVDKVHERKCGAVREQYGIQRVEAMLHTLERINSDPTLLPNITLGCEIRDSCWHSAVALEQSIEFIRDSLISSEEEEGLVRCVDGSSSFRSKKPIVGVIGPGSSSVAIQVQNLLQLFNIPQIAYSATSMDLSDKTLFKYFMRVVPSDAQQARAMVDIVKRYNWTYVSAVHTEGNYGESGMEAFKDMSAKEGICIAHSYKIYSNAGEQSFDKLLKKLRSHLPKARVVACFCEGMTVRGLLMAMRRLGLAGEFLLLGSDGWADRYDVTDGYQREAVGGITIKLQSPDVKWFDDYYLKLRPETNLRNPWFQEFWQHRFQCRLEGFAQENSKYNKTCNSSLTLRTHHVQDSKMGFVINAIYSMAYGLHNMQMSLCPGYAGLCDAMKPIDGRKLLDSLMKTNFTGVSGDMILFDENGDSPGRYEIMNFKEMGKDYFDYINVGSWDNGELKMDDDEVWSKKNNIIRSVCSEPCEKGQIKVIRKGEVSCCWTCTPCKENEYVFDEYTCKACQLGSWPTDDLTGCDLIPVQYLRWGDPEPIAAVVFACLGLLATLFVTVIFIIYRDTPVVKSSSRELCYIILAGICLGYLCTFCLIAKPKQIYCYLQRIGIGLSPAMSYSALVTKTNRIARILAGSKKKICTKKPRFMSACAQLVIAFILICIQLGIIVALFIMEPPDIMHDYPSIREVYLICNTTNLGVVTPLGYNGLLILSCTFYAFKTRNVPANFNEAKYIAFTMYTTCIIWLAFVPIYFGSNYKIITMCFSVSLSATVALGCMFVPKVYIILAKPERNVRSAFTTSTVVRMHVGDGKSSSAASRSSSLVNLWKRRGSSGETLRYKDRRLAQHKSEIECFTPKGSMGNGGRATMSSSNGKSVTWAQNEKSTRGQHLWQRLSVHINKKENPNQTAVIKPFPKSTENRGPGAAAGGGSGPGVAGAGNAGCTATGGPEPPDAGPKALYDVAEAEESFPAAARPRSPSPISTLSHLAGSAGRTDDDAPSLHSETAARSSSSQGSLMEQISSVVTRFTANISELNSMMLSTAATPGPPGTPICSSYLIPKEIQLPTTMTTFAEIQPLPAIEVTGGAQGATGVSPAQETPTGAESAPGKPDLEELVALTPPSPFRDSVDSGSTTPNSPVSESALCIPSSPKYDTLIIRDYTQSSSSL

What is called Ki is the equilibrium dissociation constant of an inhibitor or competing ligand from its target. A lower Ki goes with a stronger hold on the target. With `N#Cc1cc(F)cc(S(=O)(=O)c2sc3ncc(N)cc3c2-c2cccc(F)c2)c1` [Compound 1, 5-Amino-2-(3-cyano-5-fluoro-benzenesulfonyl)-3-(3-fluorophenyl)-thieno[2,3-b]-pyridine], on human mGluR5a receptor, the affinity, expressed as Ki, was 3.2 nM and the “binding affinity to human mGlu5 receptors” value is recorded as “high affinity”. Besides, on rat mGluR5, the Ki amounted to 1.9 nM and the “binding affinity to rat mGlu5 receptors” value is given as “high affinity”. In the assay with male Wistar rats, the “Punished drinking, MED” value came to 3 mg/kg and the “anxiolytic activity after oral administration” value is on record as “remarkable anxiolytic activity”.
For `N#Cc1cc(F)cc(S(=O)(=O)c2sc3ncc(N)cc3c2-c2cccc(Cl)c2)c1` [Compound 2, 5-Amino-2-(3-cyano-5-fluoro-benzenesulfonyl)-3-(3-chlorophenyl)-thieno[2,3-b]-pyridine], on human mGluR5a receptor, affinity was put at a Ki of 8.7 nM and the “binding affinity to human mGlu5 receptors” value is on record as “high affinity”. Moreover, on rat mGluR5, the affinity corresponds to a Ki of 7.2 nM and the “binding affinity to rat mGlu5 receptors” value is on record as “high affinity”. In the assay with male Wistar rats, the “Punished drinking, MED” value was found to be 5 mg/kg and the “anxiolytic activity after oral administration” value was “remarkable anxiolytic activity”.

The values are drawn from patent US8263773B2, “Thieno [2,3-b] pyridine compounds with mGluR activity” (Richter Gedeon Nyrt., priority 2008, dated 2012).
